# Biological target: T1, VEGFR-2 (Homo sapiens, UniProt P35968)
# T1 construct: gene KDR
# Assay: SPR with VEGFR-2 immobilized on sensor chip, compound […]
# Assay type: binding
# T1 sequence (P35968 20-1356): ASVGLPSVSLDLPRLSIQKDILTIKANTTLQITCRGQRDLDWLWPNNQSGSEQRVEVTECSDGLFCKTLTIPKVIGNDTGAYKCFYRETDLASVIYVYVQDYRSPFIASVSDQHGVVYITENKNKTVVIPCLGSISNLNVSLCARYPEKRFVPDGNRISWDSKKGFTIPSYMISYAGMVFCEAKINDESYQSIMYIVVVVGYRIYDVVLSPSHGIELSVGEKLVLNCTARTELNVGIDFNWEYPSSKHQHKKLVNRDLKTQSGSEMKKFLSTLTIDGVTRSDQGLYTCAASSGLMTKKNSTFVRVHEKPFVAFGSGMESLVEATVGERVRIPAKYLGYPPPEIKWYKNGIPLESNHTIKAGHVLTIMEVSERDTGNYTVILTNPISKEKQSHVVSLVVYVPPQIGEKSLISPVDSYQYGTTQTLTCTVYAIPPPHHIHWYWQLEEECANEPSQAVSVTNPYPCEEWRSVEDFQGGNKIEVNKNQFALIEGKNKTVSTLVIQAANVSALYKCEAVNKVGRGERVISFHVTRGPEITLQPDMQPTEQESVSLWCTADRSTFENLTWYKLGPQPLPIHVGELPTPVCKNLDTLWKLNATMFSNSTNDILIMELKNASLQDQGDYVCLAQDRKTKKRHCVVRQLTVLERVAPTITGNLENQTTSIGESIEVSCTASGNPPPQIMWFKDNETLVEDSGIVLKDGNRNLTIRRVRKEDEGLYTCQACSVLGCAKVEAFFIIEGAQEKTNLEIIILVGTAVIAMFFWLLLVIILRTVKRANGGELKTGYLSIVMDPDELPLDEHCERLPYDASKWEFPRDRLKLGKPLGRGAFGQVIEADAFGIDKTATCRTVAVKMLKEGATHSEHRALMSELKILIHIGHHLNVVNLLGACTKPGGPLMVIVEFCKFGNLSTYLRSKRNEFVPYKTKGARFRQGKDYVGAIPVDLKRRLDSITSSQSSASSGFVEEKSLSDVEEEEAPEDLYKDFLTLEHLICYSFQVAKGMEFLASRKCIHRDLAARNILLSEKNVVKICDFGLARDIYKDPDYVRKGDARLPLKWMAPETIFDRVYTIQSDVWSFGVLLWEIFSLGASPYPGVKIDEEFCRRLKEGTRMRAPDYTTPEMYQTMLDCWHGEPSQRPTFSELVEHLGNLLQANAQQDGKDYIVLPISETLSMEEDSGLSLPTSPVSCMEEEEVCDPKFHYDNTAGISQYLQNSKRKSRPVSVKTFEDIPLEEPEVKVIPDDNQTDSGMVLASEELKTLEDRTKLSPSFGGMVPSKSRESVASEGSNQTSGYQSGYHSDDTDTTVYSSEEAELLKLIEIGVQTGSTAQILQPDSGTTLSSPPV
compound,measurement,value
CC1=C(C)C2=CC(=O)c3c(c(O)c4occ(C)c4c3O)C2(C)CC1 (stereo not shown) [ajuforrestin A],Kd,45 µM

# — publication PMC12383317, “Ajuforrestin A Inhibits Tumor Proliferation and Migration by Targeting the STAT3/FAK Signaling Pathways and VEGFR-2” (Biology, 2025)
